Assay results published in patent US8138189B2, “Substituted benzene compounds as modulators of the glucocorticoid receptor” (Hoffman-La Roche Inc., priority 2009, dated 2012).

These compounds were tested against T1, full length human recombinant glucocorticoid receptor (Homo sapiens, UniProt P04150) (assay: Glucocorticoid Receptor Binding Assay (fluorescence polarization competitor assay, Fluormone GS Far Red tracer)).
T1 construct: partially purified full length human recombinant glucocorticoid receptor; purchased Panvera/Invitrogen PV4302
T1 sequence (P04150 1-777): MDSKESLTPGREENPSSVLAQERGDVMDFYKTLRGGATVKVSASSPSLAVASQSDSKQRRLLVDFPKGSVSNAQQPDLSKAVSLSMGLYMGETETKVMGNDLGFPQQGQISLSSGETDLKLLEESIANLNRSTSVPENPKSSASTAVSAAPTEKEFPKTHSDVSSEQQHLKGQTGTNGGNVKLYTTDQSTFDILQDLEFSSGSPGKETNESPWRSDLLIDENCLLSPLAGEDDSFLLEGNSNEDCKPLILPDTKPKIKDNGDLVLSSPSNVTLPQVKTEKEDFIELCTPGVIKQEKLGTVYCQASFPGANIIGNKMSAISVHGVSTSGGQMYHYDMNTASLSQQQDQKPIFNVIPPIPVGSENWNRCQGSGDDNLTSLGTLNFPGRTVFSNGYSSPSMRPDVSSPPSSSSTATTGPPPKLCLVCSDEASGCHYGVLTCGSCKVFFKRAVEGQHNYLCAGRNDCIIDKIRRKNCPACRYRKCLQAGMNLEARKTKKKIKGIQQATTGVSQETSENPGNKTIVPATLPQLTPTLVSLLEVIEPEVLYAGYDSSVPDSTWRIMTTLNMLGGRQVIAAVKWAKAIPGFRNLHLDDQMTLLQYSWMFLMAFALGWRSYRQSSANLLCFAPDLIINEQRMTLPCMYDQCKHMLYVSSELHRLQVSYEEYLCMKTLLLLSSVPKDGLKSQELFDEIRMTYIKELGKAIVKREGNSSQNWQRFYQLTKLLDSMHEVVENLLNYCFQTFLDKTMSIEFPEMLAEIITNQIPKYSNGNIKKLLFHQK
Outline: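 Partially purified full-length recombinant human GR with a stabilizing coactivator peptide was incubated with Fluormone GS Far Red tracer and serially diluted compound for 3 h at 22 °C in the dark, pH 7.4. Fluorescence polarization was read at 610-660 nm. IC50 came from sigmoidal fitting, and Ki from Cheng-Prusoff.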
A Ki of 17 nM was found for `CCOC(=O)c1cc(Oc2ccc(Cl)c([C@H](C)[C@](O)(c3ccc(=O)n(C)c3)C(F)(F)F)c2)ccc1Cl` (stereo in doubt) [Example 195, 2-Chloro-5-{4-chloro-3-[3,3,3-trifluoro-2-hydroxy-1-methyl-2-(1-methyl-6-oxo-1,6-dihydro-pyridin-3-yl)-propyl]-phenoxy}-benzoic acid ethyl ester] in this work.
A Ki of 45.8 nM was found for `C[C@@H](c1cc(Oc2ccc(Cl)c(C(=O)O)c2)ccc1Cl)[C@](O)(c1ccc(=O)n(C)c1)C(F)(F)F` (stereo in doubt) [Example 196, 2-Chloro-5-{4-chloro-3-[3,3,3-trifluoro-2-hydroxy-1-methyl-2-(1-methyl-6-oxo-1,6-dihydro-pyridin-3-yl)-propyl]-phenoxy}-benzoic acid] in this work.
A Ki of 3.4 nM was found for `C[C@H](c1ccc(Oc2ccc(C(=O)O)cc2)c(Cl)c1Cl)[C@@](O)(c1ccc(=O)n(C)c1)C(F)(F)F` (stereo in doubt) [Example 198, 4-{2,3-Dichloro-4-[3,3,3-trifluoro-2-hydroxy-1-methyl-2-(1-methyl-6-oxo-1,6-dihydro-pyridin-3-yl)-propyl]-phenoxy}-benzoic acid] in this work.
A Ki of 2.6 nM was found for `COC(=O)c1ccc(Oc2ccc([C@@H](C)[C@@](O)(c3ccc(=O)n(C)c3)C(F)(F)F)c(Cl)c2Cl)cc1F` (stereo in doubt) [Example 199, 4-{2,3-Dichloro-4-[3,3,3-trifluoro-2-hydroxy-1-methyl-2-(1-methyl-6-oxo-1,6-dihydro-pyridin-3-yl)-propyl]-phenoxy}-2-fluoro-benzoic acid methyl ester] in this work.
A Ki of 2.3 nM was found for `C[C@H](c1ccc(Oc2ccc(C(=O)O)c(F)c2)c(Cl)c1Cl)[C@@](O)(c1ccc(=O)n(C)c1)C(F)(F)F` (stereo in doubt) [Example 200, 4-{2,3-Dichloro-4-[3,3,3-trifluoro-2-hydroxy-1-methyl-2-(1-methyl-6-oxo-1,6-dihydro-pyridin-3-yl)-propyl]-phenoxy}-2-fluoro-benzoic acid] in this work.
A Ki of 47.9 nM was found for `C[C@@H](c1cc(F)c(Oc2ccc(C(=O)O)c(F)c2)cc1Cl)[C@](O)(c1ccc(=O)n(C)c1)C(F)(F)F` (stereo in doubt) [Example 202, 4-{5-Chloro-2-fluoro-4-[3,3,3-trifluoro-2-hydroxy-1-methyl-2-(1-methyl-6-oxo-1,6-dihydro-pyridin-3-yl)-propyl]-phenoxy}-2-fluoro-benzoic acid] in this work.
A Ki of 0.8 nM was found for `COC(=O)c1ccc(Oc2ccc([C@H](C)[C@](O)(c3cc(C)c(=O)n(C)c3)C(F)(F)F)c(Cl)c2)cc1F` (stereo in doubt) [Example 203, 4-{3-Chloro-4-[2-(1,5-dimethyl-6-oxo-1,6-dihydro-pyridin-3-yl)-3,3,3-trifluoro-2-hydroxy-1-methyl-propyl]-phenoxy}-2-fluoro-benzoic acid methyl ester] in this work.
A Ki of 0.7 nM was found for `Cc1cc([C@@](O)([C@@H](C)c2ccc(Oc3cc(C(F)(F)F)c(C(=O)O)cn3)cc2Cl)C(F)(F)F)cn(C)c1=O` (stereo in doubt) [Example 206, 6-{3-Chloro-4-[2-(1,5-dimethyl-6-oxo-1,6-dihydro-pyridin-3-yl)-3,3,3-trifluoro-2-hydroxy-1-methyl-propyl]-phenoxy}-4-trifluoromethyl-nicotinic acid] in this work.
A Ki of 0.9 nM was found for `COC(=O)c1ccc(Oc2ccc([C@H](C)[C@](O)(c3cc(C)c(=O)n(C)c3)C(F)(F)F)c(Cl)c2)cc1Cl` (stereo in doubt) [Example 207, 2-Chloro-4-{3-chloro-4-[2-(1,5-dimethyl-6-oxo-1,6-dihydro-pyridin-3-yl)-3,3,3-trifluoro-2-hydroxy-1-methyl-propyl]-phenoxy}-benzoic acid methyl ester] in this work.
A Ki of 1.4 nM was found for `Cc1cc([C@@](O)([C@@H](C)c2ccc(Oc3ccc(C(=O)O)c(C(F)(F)F)n3)cc2Cl)C(F)(F)F)cn(C)c1=O` (stereo in doubt) [Example 209, 6-{3-Chloro-4-[2-(1,5-dimethyl-6-oxo-1,6-dihydro-pyridin-3-yl)-3,3,3-trifluoro-2-hydroxy-1-methyl-propyl]-phenoxy}-2-trifluoromethyl-nicotinic acid] in this work.
A Ki of 0.7 nM was found for `Cc1cc([C@@](O)([C@@H](C)c2ccc(Oc3ccc(Cl)c(C(=O)O)c3)cc2Cl)C(F)(F)F)cn(C)c1=O` (stereo in doubt) [Example 211, 2-Chloro-5-{3-chloro-4-[2-(1,5-dimethyl-6-oxo-1,6-dihydro-pyridin-3-yl)-3,3,3-trifluoro-2-hydroxy-1-methyl-propyl]-phenoxy}-benzoic acid] in this work.
A Ki of 1.9 nM was found for `CCOC(=O)c1cc(Oc2ccc([C@H](C)[C@](O)(c3cc(C)c(=O)n(C)c3)C(F)(F)F)c(Cl)c2)ccc1F` (stereo in doubt) [Example 212, 5-{3-Chloro-4-[2-(1,5-dimethyl-6-oxo-1,6-dihydro-pyridin-3-yl)-3,3,3-trifluoro-2-hydroxy-1-methyl-propyl]-phenoxy}-2-fluoro-benzoic acid ethyl ester] in this work.
A Ki of 0.5 nM was found for `Cc1cc([C@@](O)([C@@H](C)c2ccc(Oc3ccc(C(=O)O)c(C(F)(F)F)c3)cc2Cl)C(F)(F)F)cn(C)c1=O` (stereo in doubt) [Example 214, 4-{3-Chloro-4-[2-(1,5-dimethyl-6-oxo-1,6-dihydro-pyridin-3-yl)-3,3,3-trifluoro-2-hydroxy-1-methyl-propyl]-phenoxy}-2-trifluoromethyl-benzoic acid] in this work.
A Ki of 4 nM was found for `C[C@H](c1ccc(Oc2ccc(C(=O)O)c(C(F)(F)F)c2)cc1Cl)[C@@](O)(c1ccc(=O)n(C)c1)C(F)(F)F` (stereo in doubt) [Example 220, 4-{3-Chloro-4-[3,3,3-trifluoro-2-hydroxy-1-methyl-2-(1-methyl-6-oxo-1,6-dihydro-pyridin-3-yl)-propyl]-phenoxy}-2-trifluoromethyl-benzoic acid] in this work.
A Ki of 0.6 nM was found for `C[C@@H](c1ccc(Oc2ccc(C(=O)O)c(Cl)c2)cc1Cl)[C@](O)(c1cc(Cl)c(=O)n(C)c1)C(F)(F)F` (stereo in doubt) [Example 222, 2-Chloro-4-{3-chloro-4-[2-(5-chloro-1-methyl-6-oxo-1,6-dihydro-pyridin-3-yl)-3,3,3-trifluoro-2-hydroxy-1-methyl-propyl]-phenoxy}-benzoic acid] in this work.
A Ki of 4.7 nM was found for `COC(=O)c1cnc(Oc2ccc([C@H](C)[C@](O)(c3cc(Cl)c(=O)n(C)c3)C(F)(F)F)c(Cl)c2)cc1C(F)(F)F` (stereo in doubt) [Example 223, 6-{3-Chloro-4-[2-(5-chloro-1-methyl-6-oxo-1,6-dihydro-pyridin-3-yl)-3,3,3-trifluoro-2-hydroxy-1-methyl-propyl]-phenoxy}-4-trifluoromethyl-nicotinic acid methyl ester] in this work.
A Ki of 3.8 nM was found for `C[C@@H](c1ccc(Oc2cc(C(F)(F)F)c(C(=O)O)cn2)cc1Cl)[C@](O)(c1cc(Cl)c(=O)n(C)c1)C(F)(F)F` (stereo in doubt) [Example 224, 6-{3-Chloro-4-[2-(5-chloro-1-methyl-6-oxo-1,6-dihydro-pyridin-3-yl)-3,3,3-trifluoro-2-hydroxy-1-methyl-propyl]-phenoxy}-4-trifluoromethyl-nicotinic acid] in this work.
A Ki of 7.1 nM was found for `C[C@H](c1ccc(-c2ccc(C(=O)O)c(F)c2)cc1Cl)[C@@](O)(c1cnc2ccccc2c1)C(F)(F)F` (stereo in doubt) [Example 225, 3′-Chloro-3-fluoro-4′-(3,3,3-trifluoro-2-hydroxy-1-methyl-2-quinolin-3-yl-propyl)-biphenyl-4-carboxylic acid] in this work.
A Ki of 64.5 nM was found for `C[C@H](c1ccc(Oc2ccc(C(=O)O)c(Cl)c2)cc1Cl)[C@@](O)(c1ccc2nccnc2c1)C(F)(F)F` (stereo in doubt) [Example 228, 2-Chloro-4-[3-chloro-4-(3,3,3-trifluoro-2-hydroxy-1-methyl-2-quinoxalin-6-yl-propyl)-phenoxy]-benzoic acid] in this work.
A Ki of 24.9 nM was found for `C[C@H](c1ccc(-c2ccc(C(=O)O)c(F)c2)cc1Cl)[C@@](O)(c1ccc(C#N)n1C)C(F)(F)F` (stereo in doubt) [Example 230, 3′-Chloro-4′-[2-(5-cyano-1-methyl-1H-pyrrol-2-yl)-3,3,3-trifluoro-2-hydroxy-1-methyl-propyl]-3-fluoro-biphenyl-4-carboxylic acid] in this work.
A Ki of 14.6 nM was found for `C[C@H](c1ccc(Oc2ccc(C(=O)O)c(Cl)c2)cc1Cl)[C@@](O)(c1ccc(C#N)n1C)C(F)(F)F` (stereo in doubt) [Example 232, 2-Chloro-4-{3-chloro-4-[2-(5-cyano-1-methyl-1H-pyrrol-2-yl)-3,3,3-trifluoro-2-hydroxy-1-methyl-propyl]-phenoxy}-benzoic acid] in this work.
A Ki of 3.9 nM was found for `C[C@H](c1ccc(Oc2ncc(C(=O)O)cc2Cl)cc1Cl)[C@@](O)(c1ccc(C#N)n1C)C(F)(F)F` (stereo in doubt) [Example 233, 5-Chloro-6-{3-chloro-4-[2-(5-cyano-1-methyl-1H-pyrrol-2-yl)-3,3,3-trifluoro-2-hydroxy-1-methyl-propyl]-phenoxy}-nicotinic acid] in this work.
